Data reported in PubChem BioAssay AID504458 (NMMLSC, 2011).
The source made the active and inactive calls. The rule behind the calls is not given here.

Molecular target: General amino acid permease AGP1 (Saccharomyces cerevisiae (strain ATCC 204508 / S288c)) (UniProt P25376)
Test: AGP1-GFP fusion level modulation in yeast, dose response, TOR pathway, S. cerevisiae, flow cytometry, KU SAR set 2, multiplex (AID 504458)
Settings: flow cytometry fluorescence, 3 h

Chain of General amino acid permease AGP1 (Saccharomyces cerevisiae (strain ATCC 204508 / S288c)) (P25376 whole entry, looked up, the tested form may be a part): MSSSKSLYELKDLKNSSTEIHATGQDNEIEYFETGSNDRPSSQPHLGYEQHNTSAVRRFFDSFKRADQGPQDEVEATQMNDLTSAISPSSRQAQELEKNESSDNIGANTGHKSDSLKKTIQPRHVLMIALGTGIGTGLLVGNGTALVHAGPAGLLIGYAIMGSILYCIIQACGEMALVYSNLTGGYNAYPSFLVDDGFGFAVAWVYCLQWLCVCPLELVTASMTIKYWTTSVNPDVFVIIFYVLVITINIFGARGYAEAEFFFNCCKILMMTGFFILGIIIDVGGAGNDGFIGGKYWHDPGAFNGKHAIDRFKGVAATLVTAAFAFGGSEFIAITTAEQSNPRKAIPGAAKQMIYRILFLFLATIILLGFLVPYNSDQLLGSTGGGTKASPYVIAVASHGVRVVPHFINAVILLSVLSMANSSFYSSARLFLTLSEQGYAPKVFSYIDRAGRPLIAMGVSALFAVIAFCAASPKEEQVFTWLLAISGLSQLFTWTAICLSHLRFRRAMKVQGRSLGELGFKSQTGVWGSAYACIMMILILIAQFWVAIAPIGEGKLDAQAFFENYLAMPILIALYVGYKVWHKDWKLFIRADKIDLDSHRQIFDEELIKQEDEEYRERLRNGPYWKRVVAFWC

Structure (SMILES) | EC50
Cc1cc(Nc2cc(Nc3ccccc3)nc(NCc3ccccc3)n2)n[nH]1 | inactive
COc1ccccc1-c1cc(Nc2cc(C)[nH]n2)nc(NCc2ccccc2)n1 | inactive
COC(=O)c1cccc(-c2cc(Nc3cc(C)[nH]n3)nc(NCc3ccccc3)n2)c1 | inactive
CCNc1nc(NC2CCCCC2)c([N+](=O)[O-])c(N2CCOCC2)n1 | inactive
CNc1nc(N)cc(Nc2cccc(Cl)c2)n1 | inactive
Cc1cc(Nc2cc(-c3ccccc3)nc(NCc3ccccc3)n2)n[nH]1 | inactive
CNc1nc(N)cc(Oc2cccc(Cl)c2)n1 | inactive
O=[N+]([O-])c1c(NC2CCCCC2)nc(NCc2ccccc2)nc1N1CCOCC1 | inactive
CNc1nc(N)c(C(=O)c2ccc(C)c(C)c2)c(Nc2cccc(Cl)c2)n1 | inactive

Second part, the compound after the results:

EC50 | Structure (SMILES)
inactive | CNc1nc(N)c([N+](=O)[O-])c(Nc2ccccc2Br)n1
inactive | CNc1nc(N)cc(Nc2ccccc2F)n1
inactive | CNc1nc(NC)c([N+](=O)[O-])c(Nc2cccc(Cl)c2)n1
9.69 µM | CCNc1nc(N)c([N+](=O)[O-])c(Nc2cccc(Cl)c2)n1
inactive | CCOC(=O)c1c(N)nc(NC)nc1Nc1cccc(F)c1
inactive | CNc1nc(N)c([N+](=O)[O-])c(Nc2cccc(Oc3ccccc3)c2)n1
